From paper PMC12246642 (iScience, 2025)

How the values were obtained:
[1] = target: His tag SARS-CoV-2 3CLpro (1-306) F305A, Q306A (Severe acute respiratory syndrome coronavirus 2, UniProt P0DTD1, F3568A/Q3569A); assay type: binding
SARS-CoV-2 Mpro [2] = target: T1, SARS-CoV-2 Mpro (Severe acute respiratory syndrome coronavirus 2, UniProt P0DTD1); test: Covalent bond (adduct) formation kinetics by IR-MALDESI intact protein MS; assay type: binding; conditions: for covalent complex formation in the titration of compound versus Mpro: up to 5-fold molar excess of compound, unquenched condition for compound 5
SARS-CoV-2 Mpro [3] = target: T1, SARS-CoV-2 Mpro; test: biochemical; assay type: biochemical; conditions: aldehyde hydration penalty taken into account

| Compound | Kd [1] | T1/2 [1] | time for which covalent binding persists after chase (reversibility of adduct formation) (SARS-CoV-2 Mpro [2]) | covalent complex formation in the titration of compound versus Mpro (SARS-CoV-2 Mpro [2]) | likely affinity accounting for the hydration penalty (SARS-CoV-2 Mpro [3]) |
| --- | --- | --- | --- | --- | --- |
| CS(=O)(=O)CC[C@@H](C#N)NC(=O)[C@H](CC1CC1)NC(=O)OCc1ccccc1 [Compound 8, benzyl ((S)-1-(((S)-1-cyano-3-(methylsulfonyl)propyl)amino)-3-cyclopropyl-1-oxopropan-2-yl)carbamate] | No Activity | No activity | – | – | – |
| COc1cccc2[nH]c(C(=O)N[C@@H](CC3CC3)C(=O)N[C@H](C#N)C[C@@H]3CCNC3=O)cc12 [Compound 5, N-((S)-1-(((S)-1-cyano-2-((S)-2-oxopyrrolidin-3-yl)ethyl)amino)-3-cyclopropyl-1-oxopropan-2-yl)-4-methoxy-1H-indole-2-carboxamide] | – | – | ≤ 1 h | ~100% | – |
| O=C[C@H](C[C@@H]1CCNC1=O)NC(=O)[C@H](CC1CC1)NC(=O)OCc1ccccc1 [Compound 2, benzyl ((S)-3-cyclopropyl-1-oxo-1-(((S)-1-oxo-3-((S)-2-oxopyrrolidin-3-yl)propan-2-yl)amino)propan-2-yl)carbamate] | – | – | – | – | ~10 pM |
| COc1cccc2[nH]c(C(=O)N[C@@H](CC3CC3)C(=O)N[C@H](C=O)C[C@@H]3CCNC3=O)cc12 [Compound 1, N-((S)-3-cyclopropyl-1-oxo-1-(((S)-1-oxo-3-((S)-2-oxopyrrolidin-3-yl)propan-2-yl)amino)propan-2-yl)-4-methoxy-1H-indole-2-carboxamide] | – | – | at least 4 h | did not reach saturation | ~10 pM |
